# Data: publication PMC9862588, “The Bi-Functional Paxilline Enriched in Skin Secretion of Tree Frogs (Hyla japonica) Targets the KCNK18 and BKCa Channels” (Toxins, 2023)
# Target: T1, KCNK18 (Rattus norvegicus, UniProt Q6Q1P3)
# T1 sequence (Q6Q1P3 1-405): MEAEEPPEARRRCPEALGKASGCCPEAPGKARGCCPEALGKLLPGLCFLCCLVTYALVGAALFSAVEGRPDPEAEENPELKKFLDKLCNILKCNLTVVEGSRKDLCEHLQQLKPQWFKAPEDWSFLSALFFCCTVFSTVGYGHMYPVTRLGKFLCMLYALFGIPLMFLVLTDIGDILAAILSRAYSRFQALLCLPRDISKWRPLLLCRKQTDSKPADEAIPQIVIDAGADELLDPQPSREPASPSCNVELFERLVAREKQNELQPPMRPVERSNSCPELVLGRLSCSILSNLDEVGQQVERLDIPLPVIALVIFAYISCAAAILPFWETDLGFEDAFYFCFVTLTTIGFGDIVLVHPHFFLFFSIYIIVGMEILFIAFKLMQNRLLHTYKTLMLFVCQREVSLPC
# Assay: whole-cell patch clamp of transfected HEK293 cells, dose-response; loss of effect on F375 swap and F167A
# Format: cell-based
smiles,measurement,value
"CC(C)(O)[C@H]1O[C@H]2CC[C@@]3(C)[C@@](O)(CC[C@H]4Cc5c([nH]c6ccccc56)[C@@]43C)C2=CC1=O [PAX, Paxilline]",IC50,4.13 ± 0.04 µM
